Data set [1] in a line: Binding affinity to FLAG/His-tagged Keap1 (unknown origin)/biotinylated full-length FLAG/His/Tev/Avi-tagged Cul3 (unknown origin) expressed in baculovirus infected Sf9 insect cells measured after 1 hr by TR-FRET assay. The arrangement: species or system Homo sapiens. (In TR-FRET formats the signal depends on donor and acceptor labels being close together.)
Data set [2] is described as follows: Apparent permeability across basolateral to apical side in MDCK-MDR1. Format: ADME, cell-based, Canis lupus familiaris. The note with it: dog.
Data set [3] is filed under the species Homo sapiens. Kind of data set: Activation of Keap1/Cul3/Nrf2 in NHBE cells assessed as induction of HO-1 gene expression at 10 uM after 24 hrs by RT-PCR analysis relative to SFN. Format: cell-based.
Data set [4] is described as follows: Solubility of the compound in FaSSIF at pH 6.5 using solid sample. It counts as physicochemical.
Data set [5] relates to Kelch-like ECH-associated protein 1 (Homo sapiens), Q14145 [C151S]. Kind of data set: Binding affinity to human N-terminal His6-tagged Keap1 C151S mutant (35 to 182 residues) expressed in baculovirus infected Sf9 insect cells assessed as cysteine-compound adduct formation at 15-fold molar excess measured after 1 hr by RP-LC/MS/MS analysis.
For data set [6], the system named is Mus musculus. Kind of data set: Antioxidant activity in C57BL/6J mouse model of cigarette smoking-induced oxidative stress assessed as inhibition of mononuclear cell infiltration at 0.1 to 100 umol/kg, po dosed 24 hrs prior to cigarette smoking followed by qd dosing with cigarette smoking for 3 days by Wright-Giemsa staining based hemocytometry. Format: functional, organism-based.

Data set [7] is described as follows: Kinetic solubility of the compound at pH 7.4 by CLND method. It counts as physicochemical. The conditions noted are these: buffer, read-out: Kinetic_solubility.
Data set [8] is described as follows: Drug metabolism in rat assessed as (2R)-2-acetamido-3-[3-[[2-(dimethylamino)-3,4-dioxo-cyclobuten-1-yl]-methyl-amino]propylcarbamothioylsulfanyl]propanoic acid formation at 2 mg/kg, po. Format: ADME, organism-based. The note with it: in vivo.
The target in data set [9] is BACH1/MafK (Homo sapiens, UniProt O14867+O60675). Kind of data set: Inhibition of Bach1-Mafk interaction (unknown origin) by luciferase reporter gene based enzyme fragment complementation assay. Format: protein assay.
Data set [10] addresses Keap1/Nrf2 (Homo sapiens, UniProt Q14145+Q16236). Kind of data set: Binding affinity to FLAG/His-tagged Keap1 (unknown origin)/biotinylated full-length FLAG/His/Tev/Avi-tagged NRF2 (unknown origin) expressed in baculovirus infected Sf9 insect cells measured after 1 hr by TR-FRET assay.
The species named for data set [11] is Homo sapiens. Kind of data set: (§1) Activation of Keap1/Cul3/Nrf2 in human BEAS2B cells assessed as increase in NQO1 levels measured after 48 hrs. It counts as cell-based.
Data set [12] is described as follows: as §1. The conditions noted are these: BEAS-2B. It counts as cell-based.
A short description of data set [13]: Apparent permeability across apical to basolateral side in MDCK-MDR1. The conditions noted are these: dog. It counts as ADME, cell-based, Canis lupus familiaris.
The nature of data set [14]: Stability of the compound at 23 degC using crystalline solid sample measured >3 years by 1H-NMR analysis. It counts as physicochemical.
Data set [15] can be described thus: Lipophilicity, log D of the compound at pH 7.4 by chromatographic method. The conditions noted are these: buffer. Format: physicochemical.
In data set [16] the test system is Mus musculus. Kind of data set: Antioxidant activity in C57BL/6J mouse model of cigarette smoking-induced oxidative stress assessed as inhibition of neutrophil infiltration at 0.1 to 100 umol/kg, po dosed 24 hrs prior to cigarette smoking followed by qd dosing with cigarette smoking for 3 days by Wright-Giemsa staining based hemocytometry. It counts as functional, organism-based.

The nature of data set [17]: Drug metabolism in rat assessed as (2S)-2-amino-5-[[(1R)-2-(carboxymethylamino)-1-[3-[[2-(dimethylamino)-3,4-dioxo-cyclobuten-1-yl]-methyl-amino]propylcarbamothioylsulfanylmethyl]-2-oxo-ethyl]amino]-5-oxo-pentanoic acid formation at 2 mg/kg, po. It counts as ADME, organism-based. The note with it: in vivo.
For data set [18], the target named is Kelch-like ECH-associated protein 1 (Homo sapiens) (UniProt Q14145). Kind of data set: Binding affinity to wild-type human N-terminal His6-tagged Keap1 (35 to 178 residues) expressed in baculovirus infected Sf9 insect cells assessed as cysteine-compound adduct formation at 15-fold molar excess measured after 1 hr by RP-LC/MS/MS analysis.
Data set [19] relates to Mus musculus. Kind of data set: Antioxidant activity in C57BL/6J mouse model of cigarette smoking-induced oxidative stress assessed as inhibition of total cell infiltration at 0.1 to 100 umol/kg, po dosed 24 hrs prior to cigarette smoking followed by qd dosing with cigarette smoking for 3 days by Wright-Giemsa staining based hemocytometry. Format: functional, organism-based.

Data set [20] can be described thus: Stability of the compound at 23 degC using crystalline solid sample measured >3 years by LC/MS analysis. It counts as physicochemical.
The subject of data set [21] is Mus musculus. Kind of data set: Antioxidant activity in po dosed C57BL/6J mouse model of cigarette smoking-induced oxidative stress assessed as inhibition of neutrophil infiltration dosed 24 hrs prior to cigarette smoking followed by qd dosing with cigarette smoking for 3 days by Wright-Giemsa staining based hemocytometry. It counts as functional, organism-based.

Structures are written as SMILES. Values after ≈ are worked out from the molar mass of the structure shown. Active and inactive are the calls of the source. No cut-off for these calls is given here.

BACH1/MafK, sequence (O60675 whole entry, the tested form may be a part): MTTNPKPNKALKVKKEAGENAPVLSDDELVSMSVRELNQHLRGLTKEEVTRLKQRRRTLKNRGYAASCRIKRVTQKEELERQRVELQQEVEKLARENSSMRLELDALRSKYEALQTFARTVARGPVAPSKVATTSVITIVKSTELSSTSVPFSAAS
BACH1/MafK, sequence (O14867 whole entry, the tested form may be a part): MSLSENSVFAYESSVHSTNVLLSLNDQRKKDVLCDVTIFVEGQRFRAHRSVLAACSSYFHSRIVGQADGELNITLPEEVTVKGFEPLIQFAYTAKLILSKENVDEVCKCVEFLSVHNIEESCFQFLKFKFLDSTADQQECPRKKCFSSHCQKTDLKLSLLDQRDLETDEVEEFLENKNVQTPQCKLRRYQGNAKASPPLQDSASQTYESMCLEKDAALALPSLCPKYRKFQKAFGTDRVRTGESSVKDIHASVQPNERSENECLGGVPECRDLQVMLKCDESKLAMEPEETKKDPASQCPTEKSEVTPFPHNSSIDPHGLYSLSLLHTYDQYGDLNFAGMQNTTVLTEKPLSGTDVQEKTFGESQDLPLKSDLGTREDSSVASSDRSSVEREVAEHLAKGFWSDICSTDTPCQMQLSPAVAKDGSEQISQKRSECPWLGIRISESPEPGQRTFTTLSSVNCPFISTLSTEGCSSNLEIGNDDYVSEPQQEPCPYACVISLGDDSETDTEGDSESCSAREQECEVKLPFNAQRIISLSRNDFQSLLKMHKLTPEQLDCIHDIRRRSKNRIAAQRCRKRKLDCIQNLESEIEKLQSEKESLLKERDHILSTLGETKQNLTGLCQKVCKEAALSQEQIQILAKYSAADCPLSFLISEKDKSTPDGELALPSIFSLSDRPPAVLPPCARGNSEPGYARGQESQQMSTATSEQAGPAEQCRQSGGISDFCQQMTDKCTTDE
Kelch-like ECH-associated protein 1 (Homo sapiens), sequence (Q14145 whole entry, the tested form may be a part): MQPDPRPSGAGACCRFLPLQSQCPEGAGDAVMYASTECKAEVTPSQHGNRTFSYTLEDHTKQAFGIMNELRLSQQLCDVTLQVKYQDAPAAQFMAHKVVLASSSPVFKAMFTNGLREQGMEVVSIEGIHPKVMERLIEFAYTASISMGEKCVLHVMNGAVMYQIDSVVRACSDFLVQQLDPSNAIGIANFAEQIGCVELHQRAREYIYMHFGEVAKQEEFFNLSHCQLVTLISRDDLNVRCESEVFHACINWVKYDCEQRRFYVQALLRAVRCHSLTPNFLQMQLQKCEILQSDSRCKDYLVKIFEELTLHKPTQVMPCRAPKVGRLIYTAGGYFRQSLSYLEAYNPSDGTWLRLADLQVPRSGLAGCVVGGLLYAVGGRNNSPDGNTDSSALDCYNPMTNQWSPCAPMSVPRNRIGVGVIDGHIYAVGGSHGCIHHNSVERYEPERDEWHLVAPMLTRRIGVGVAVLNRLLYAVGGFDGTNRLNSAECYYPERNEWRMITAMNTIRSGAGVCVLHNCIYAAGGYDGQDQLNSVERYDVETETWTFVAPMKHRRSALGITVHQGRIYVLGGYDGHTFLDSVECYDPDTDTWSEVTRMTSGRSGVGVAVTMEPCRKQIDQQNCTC
Kelch-like ECH-associated protein 1 (Homo sapiens), Q14145 [C151S], sequence (Q14145 whole entry C151S, the tested form may be a part): as the sequence (Q14145 whole entry, the tested form may be a part) above, with C151S counted along it
Keap1/Nrf2, sequence (Q16236 whole entry): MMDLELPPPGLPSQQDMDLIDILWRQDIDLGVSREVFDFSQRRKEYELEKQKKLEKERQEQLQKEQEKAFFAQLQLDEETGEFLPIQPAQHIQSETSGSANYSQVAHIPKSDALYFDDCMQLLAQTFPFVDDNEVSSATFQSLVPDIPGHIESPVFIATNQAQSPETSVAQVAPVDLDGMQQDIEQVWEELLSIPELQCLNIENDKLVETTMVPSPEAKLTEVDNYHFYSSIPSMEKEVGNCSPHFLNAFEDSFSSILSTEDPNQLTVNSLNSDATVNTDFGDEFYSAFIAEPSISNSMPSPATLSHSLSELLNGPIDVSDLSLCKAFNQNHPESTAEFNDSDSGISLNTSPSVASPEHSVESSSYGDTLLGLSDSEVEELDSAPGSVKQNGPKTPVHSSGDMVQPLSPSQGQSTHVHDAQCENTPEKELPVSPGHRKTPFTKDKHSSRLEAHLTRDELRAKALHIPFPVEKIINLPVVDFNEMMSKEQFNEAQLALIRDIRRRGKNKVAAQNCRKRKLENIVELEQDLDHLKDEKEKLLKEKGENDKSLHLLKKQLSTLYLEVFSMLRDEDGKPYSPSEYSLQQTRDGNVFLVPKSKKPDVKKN
Keap1/Nrf2, sequence (Q14145 whole entry): as the sequence (Q14145 whole entry, the tested form may be a part) above

On to `CN(C)c1c(N(C)CCCN=C=S)c(=O)c1=O`, for which the pIC50 (as a rule, −log10 of the IC50, conventionally taken in molar units) in data set [1] is recorded as 4.3. In data set [2], the Papp B→A (commonly how fast a substance crosses the layer from the basolateral side) is 7.67 ×10⁻⁶ cm/s. For the same compound, the fold change (FC) in [3] was 24.9 to 25. The thermodynamic solubility (usually the concentration in solution at equilibrium with solid) in data set [4] was found to be 8000 µg/mL (≈ 31.6 mM). The result in data set [5] and in [18] was Active. For the same compound, the inhibition entry in data set [6], in data set [16] and in data set [19] was “Active” each time. Further, in [7], the solubility kinetic is no less than 394 µM. In addition, the Drug metabolism result in data set [8] and in data set [17] was “Metabolite_Detected” each time. The IC50 (as a rule, the concentration needed to halve the response being measured) in [9] is 3.16 µM; in data set [10], greater than 100 µM. Moreover, the Activity result in data set [11] was “Dose-dependent effect”. For the same compound, in [12], the EC50 – broadly, the concentration giving half of the maximal effect – is 1580 to 1660 nM. In addition, the Papp A→B (in general, the apparent permeability from the apical to the basolateral side of a cell layer) in [13] was determined as 12.5 ×10⁻⁶ cm/s. Also, the Stability entry in data set [14] and in data set [20] was “Stable” in each case. Also, the chromatographic logD (usually a lipophilicity value derived from retention on a column) in data set [15] lay within 2.14 to 2.39. The inhibition result in data set [21] is “Dose-dependent effect”.
Compound `C[S+]([O-])CCCCN=C=S` (racemic) [SULFORAPHANE] came in with a pIC50 in data set [1] of less than 4. Also, the result in [5] and in data set [18] was Active. Further, the solubility kinetic in [7] is 271 µM (≈ 48 µg/mL). The same compound showed an IC50 in data set [9] of 15.8 µM. Also, in [12], the EC50 is 1580 to 2090 nM.

These data come from ChEMBL document CHEMBL4330129 (Bioorg Med Chem, 2019).
